This passage reports Ki results from patent US20060100431A1, “Biologically active compounds” (Amura Therapeutics Limited, priority 2002, published 2006).

What all share (format): biochemical
The target in one experiment is Wild-type cruzipain (Trypanosoma cruzi, UniProt P25779). In words: Trypanosoma cruzi cruzipain peptidase activity assay (Ki). As to conditions: read-out: Ki, inhibitors of cruzain and cruzipains. The method in brief: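 Native cruzipain from T. cruzi Dm28 epimastigotes, 2.5 nM, in 100 mM sodium phosphate pH 6.75 with 1 mM EDTA and 10 mM L-cysteine, 25 °C, DMSO <1%. Rates taken from continuous fluorogenic substrate read; Ki by regression assuming reversible pure-competitive inhibition.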
Chain of Wild-type cruzipain (P25779 whole entry): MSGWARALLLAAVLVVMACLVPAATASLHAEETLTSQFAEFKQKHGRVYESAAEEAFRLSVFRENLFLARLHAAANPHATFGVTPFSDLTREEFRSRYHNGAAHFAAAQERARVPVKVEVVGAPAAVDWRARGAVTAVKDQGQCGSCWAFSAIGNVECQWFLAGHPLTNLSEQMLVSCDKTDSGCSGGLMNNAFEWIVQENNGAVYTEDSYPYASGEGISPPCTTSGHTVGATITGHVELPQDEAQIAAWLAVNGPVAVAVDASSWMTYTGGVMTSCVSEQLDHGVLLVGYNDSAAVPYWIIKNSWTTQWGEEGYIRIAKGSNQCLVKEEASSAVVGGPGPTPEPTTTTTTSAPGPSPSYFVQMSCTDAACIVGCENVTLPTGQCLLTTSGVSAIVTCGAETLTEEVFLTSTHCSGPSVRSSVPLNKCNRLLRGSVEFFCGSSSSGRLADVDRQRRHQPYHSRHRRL

A further experiment has as its target T1, CPB2.8ΔCTE (Leishmania mexicana, UniProt P36400).
T1 construct: Wild-type recombinant CPB without the C-terminal extention (i.e. CPB2.8ΔCTE); Dr. Jeremy Mottram (Wellcome Centre for Molecular Parasitology, University of Glasgow)
In words: Leishmania mexicana cysteine protease B (CPB) peptidase activity assay (Ki). Conditions: Ki, inhibitors of Leismania mexicana CPB protease. The method in brief:
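Apparent Ki was derived by regression of activity against inhibitor concentration, assuming pure-competitive reversible binding. Reaction: 0.25 nM CPB lacking the C-terminal extension, pH 5.5 acetate buffer (1 mM EDTA, 200 mM NaCl, 10 mM DTT), 25 °C, followed by continuous substrate fluorescence.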

In another experiment the target is T2, human cathepsin B (Homo sapiens, UniProt P07858).
T2 construct: purchased CN Biosciences
The experiment in a line: Cathepsin B peptidase activity assay (Ki). As to conditions: read-out: Ki, inhibitors of cathepsin B. The protocol: Unless otherwise stated, all general chemicals and biochemicals were purchased from either the Sigma Chemical Company, Poole, Dorset, U.K or from Fisher Scientific UK, Loughborough, Leicestershire, U.K. Absorbance assays were carried out in flat-bottomed 96-well plates (Spectra; Greiner Bio-One Ltd., Stonehouse, Gloucestershire, U.K.) using a SpectraMax PLUS384 plate reader (Molecular Devices, Crawley, U.K.). […] Fluorescence assays were monitored using a SpectraMax Gemini fluorescence plate reader (Molecular Devices). For substrates employing either a 7-amino-4-methylcoumarin (AMC) or a 7-amino-4-trifluoromethylcoumarin (AFC) fluorophore, assays were monitored at an excitation wavelength of 365 nm and an emission wavelength of 450 nm and the fluorescence plate reader calibrated with AMC. For substrates employing a 3-amino-benzoyl (Abz) fluorophore, assays were monitored at an excitation wavelength of 310 nm and an emission wavelength of 445 nm; the fluorescence plate reader calibrated with 3-amino-benzamide (Fluka). Unless otherwise indicated, all the peptidase substrates were purchased from Bachem UK, St Helens, Merseyside, UK. […] Hydroxyethylpiperazine ethanesulfonate (HEPES), tris-hydroxylmethyl aminomethane (tris) base, bis-tris-propane and all the biological detergents (e.g. CHAPS, zwittergents, etc.) were purchased from CN Biosciences UK, Beeston, Nottinghamshire, U.K. Glycerol was purchased from Amersham Pharmacia Biotech, Little Chalfont, Buckinghamshire, U.K. Stock solutions of substrate or inhibitor were made up to 10 mM in 100% dimethylsulfoxide (DMSO) (Rathburns, Glasgow, U.K.) and diluted as appropriately required. In all cases the DMSO concentration in the assays was maintained at less than 1% (vol./vol.).
Enzyme was added as required to initiate the reaction and the activity, as judged by the change in fluorescence upon conversion of substrate to product, was monitored over time. All assays were carried out at 25±1° C.
Bovine cathepsin S, human cathepsin L, human cathepsin H and human cathepsin B were obtained from CN Biosciences. Recombinant human cathepsin S, human cathepsin K and human cathepsin X were obtained from Dr. Boris Turk (Josef Stefan Institute, Ljubljana, Slovenia). Unless otherwise stated, all peptidase activity assays were carried out in 10 mM bis-tris-propane (BTP), pH 6.5 containing 1 mM EDTA, 5 mM 2-mercaptoethanol and 1 mM CaCl2.
The apparent inhibition constant (Ki) for each compound was determined on the basis that inhibition was reversible and occurred by a pure-competitive mechanism. […] [formula]
[formula] Ki^app=Ki(1+[So]/KM^app) (4)
Curves were fitted by non-linear regression analysis (Prism) using a fixed value for the enzyme concentration.

Where only a bound is given, the exact number is not on record here.

T1 sequence (P36400 126-343, stated change not applied): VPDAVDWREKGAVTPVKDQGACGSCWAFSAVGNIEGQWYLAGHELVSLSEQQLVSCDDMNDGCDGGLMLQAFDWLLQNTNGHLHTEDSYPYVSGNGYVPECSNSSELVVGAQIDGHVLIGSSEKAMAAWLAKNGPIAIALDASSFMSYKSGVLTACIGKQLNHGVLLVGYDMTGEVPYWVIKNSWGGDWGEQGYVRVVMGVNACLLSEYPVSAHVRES

On to `CC(C)C[C@H](NC(=O)c1ccc(C(C)(C)C)cc1)C(=O)N1CC[C@@H]2[C@H]1C(=O)CN2C(=O)c1csc(-c2ccccc2)n1` [Example 27, (3aR,6aS)-4-tert-Butyl-N-{(1S)-3-methyl-1-[6-oxo-4-(2-phenyl-thiazole-4-carbonyl)-hexahydro-pyrrolo[3,2-b]pyrrole-1-carbonyl]-butyl}-benzamide], for which the inhibition constant Ki at Wild-type cruzipain, on CPB2.8ΔCTE and on human cathepsin B was less than 5 µM throughout.
On to `CC(C)C[C@H](NC(=O)c1ccc(C(C)(C)C)cc1)C(=O)N1CC[C@@H]2[C@H]1C(=O)CN2C(=O)c1ccc2ccccc2c1` [Example 34, (3aR,6aS)-4-tert-Butyl-N-{(1S)-3-methyl-1-[4-(naphthalene-2-carbonyl)-6-oxo-hexahydro-pyrrolo[3,2-b]pyrrole-1-carbonyl]-butyl}-benzamide], for which the inhibition constant (Ki) on Wild-type cruzipain, at CPB2.8ΔCTE and on human cathepsin B was less than 5 µM throughout.
As to `CC(C)C[C@H](NC(=O)c1ccc(C(C)(C)C)cc1)C(=O)N1CC[C@@H]2[C@H]1C(=O)CN2C(=O)c1cncc(-c2cccs2)c1` [Example 35, (3aR,6aS)-4-tert-Butyl-N-{(1S)-3-methyl-1-[6-oxo-4-(5-thiophen-2-yl-pyridine-3-carbonyl)-hexahydro-pyrrolo[3,2-b]pyrrole-1-carbonyl]-butyl}-benzamide], the Ki at Wild-type cruzipain, on CPB2.8ΔCTE and on human cathepsin B was less than 5 µM in each case.
Take `CC(C)C[C@H](NC(=O)c1ccc(N(C)C)cc1)C(=O)N1CC[C@@H]2[C@H]1C(=O)CN2C(=O)c1cccc(S(C)(=O)=O)c1` [Example 43, (3aR,6aS)-4-Dimethylamino-N-{(1S)-1-[4-(3-methanesulfonyl-benzoyl)-6-oxo-hexahydro-pyrrolo[3,2-b]pyrrole-1-carbonyl]-3-methyl-butyl}-benzamide]: the Ki on Wild-type cruzipain, on CPB2.8ΔCTE and on human cathepsin B was less than 5 µM in each case.
For `CC(C)C[C@H](NC(=O)c1ccc(N(C)C)cc1)C(=O)N1CC[C@@H]2[C@H]1C(=O)CN2C(=O)c1cccc([N+](=O)[O-])c1` [Example 46, (3aR,6aS)-4-Dimethylamino-N-{(1S)-3-methyl-1-[4-(3-nitro-benzoyl)-6-oxo-hexahydro-pyrrolo[3,2-b]pyrrole-1-carbonyl]-butyl}-benzamide], the inhibitory constant (Ki) on Wild-type cruzipain, on CPB2.8ΔCTE and on human cathepsin B was less than 5 µM each time.
Turning to `CC(C)C[C@H](NC(=O)c1ccc(N(C)C)cc1)C(=O)N1CC[C@@H]2[C@H]1C(=O)CN2C(=O)c1ccc(F)cc1` [Example 57, (3aR,6aS)-4-Dimethylamino-N-{(1S)-1-[4-(4-fluoro-benzoyl)-6-oxo-hexahydro-pyrrolo[3,2-b]pyrrole-1-carbonyl]-3-methyl-butyl}-benzamide], the inhibitory constant (Ki) on CPB2.8ΔCTE and at human cathepsin B was less than 5 µM throughout.
Turning to `CC(C)C[C@H](NC(=O)c1ccc([N+](=O)[O-])cc1)C(=O)N1CC[C@@H]2[C@H]1C(=O)CN2C(=O)c1cccc(S(C)(=O)=O)c1` [Example 58, (3aR,6aS)-N-{(1S)-1-[4-(3-Methanesulfonyl-benzoyl)-6-oxo-hexahydro-pyrrolo[3,2-b]pyrrole-1-carbonyl]-3-methyl-butyl}-4-nitro-benzamide], the inhibition constant Ki at Wild-type cruzipain and on human cathepsin B was less than 5 µM in each case.
For the molecule `O=C(N[C@@H](Cc1ccc(O)cc1)C(=O)N1CC[C@@H]2[C@H]1C(=O)CN2C(=O)c1ccccc1)c1nccc2ccccc12` [Example 299, (3aR,6aS)-Isoquinoline-1-carboxylic acid [(1S)-2-(4-benzoyl-6-oxo-hexahydro-pyrrolo[3,2-b]pyrrol-1-yl)-1-(4-hydroxy-benzyl)-2-oxo-ethyl]-amide], the Ki at Wild-type cruzipain and on human cathepsin B was less than 5 µM throughout.
Regarding `O=C(N[C@@H](Cc1ccc(O)cc1)C(=O)N1CC[C@@H]2[C@H]1C(=O)CN2C(=O)c1ccccc1)c1cc2ccccc2s1` [Example 300, (3aR,6aS)-Benzo[b]thiophene-2-carboxylic acid [(1S)-2-(4-benzoyl-6-oxo-hexahydro-pyrrolo[3,2-b]pyrrole-1-yl)-1-(4-hydroxy-benzyl)-2-oxo-ethyl]-amide], the Ki on Wild-type cruzipain and at human cathepsin B was less than 5 µM in each case.
On to `O=C(N[C@@H](Cc1ccc(O)cc1)C(=O)N1CC[C@@H]2[C@H]1C(=O)CN2C(=O)c1cccc2ccccc12)c1cccc2ccccc12` [Example 301, (3aR,6aS)-Naphthalene-1-carboxylic acid {(1S)-1-(4-hydroxy-benzyl)-2-[4-(naphthalene-1-carbonyl)-6-oxo-hexahydro-pyrrolo[3,2-b]pyrrol-1-yl]-2-oxo-ethyl}-amide], for which the Ki on Wild-type cruzipain and on human cathepsin B was less than 5 µM throughout.
In the case of `CS(=O)(=O)c1cccc(C(=O)N2CC(=O)[C@@H]3[C@H]2CCN3C(=O)[C@H](Cc2ccc(O)cc2)NC(=O)c2cccc(Br)c2)c1` [Example 304, (3aR,6aS)-3-Bromo-N-{(1S)-1-(4-hydroxy-benzyl)-2-[4-(3-methanesulfonyl-benzoyl)-6-oxo-hexahydro-pyrrolo[3,2-b]pyrrole-1-yl]-2-oxo-ethyl}-benzamide], the Ki on Wild-type cruzipain and on human cathepsin B was less than 5 µM throughout.
Consider `O=C(N[C@@H](Cc1ccc(O)cc1)C(=O)N1CC[C@@H]2[C@H]1C(=O)CN2C(=O)c1cccc([N+](=O)[O-])c1)c1cccc(Br)c1` [Example 305, (3aR,6aS)-3-Bromo-N-{(1S)-1-(4-hydroxy-benzyl)-2-[4-(3-nitro-benzoyl)-6-oxo-hexahydro-pyrrolo[3,2-b]pyrrole-1-yl]-2-oxo-ethyl}-benzamide], for which the inhibition constant (Ki) on Wild-type cruzipain and on human cathepsin B was less than 5 µM in each case.
On to `O=C(N[C@@H](Cc1ccc(O)cc1)C(=O)N1CC[C@@H]2[C@H]1C(=O)CN2C(=O)C12CC3CC(CC(C3)C1)C2)c1cccc(Br)c1` [Example 307, (3aR,6aS)-N-[(1S)-2-[4-(Adamantane-1-carbonyl)-6-oxo-hexa hydro-pyrrolo[3,2-b]pyrrole-1-yl)-1-(4-hydroxy-benzyl)-2-oxo-ethyl]-3-bromo-benzamide], for which the inhibitory constant (Ki) on Wild-type cruzipain and at human cathepsin B was less than 5 µM in each case.
On to `O=C(N[C@@H](Cc1ccc(O)cc1)C(=O)N1CC[C@@H]2[C@H]1C(=O)CN2C(=O)C12CC3CC(CC1C3)C2)c1cccc(Br)c1` [Example 308, (3aR,6aS)-3-Bromo-N-[(1S)-2-[4-(hexahydro-2,5-methano-pentalene-3a-carbonyl)-6-oxo-hexahydro-pyrrolo[3,2-b]pyrrole-1-yl]-1-(4-hydroxy-benzyl)-2-oxo-ethyl]-benzamide], for which the inhibitory constant (Ki) at Wild-type cruzipain and at human cathepsin B was less than 5 µM in each case.
Take `O=C(N[C@@H](Cc1ccc(O)cc1)C(=O)N1CC[C@@H]2[C@H]1C(=O)CN2C(=O)c1ccc(O)cc1)c1cccc(Br)c1` [Example 309, (3aR,6aS)-3-Bromo-N-[(1S)-2-[4-(4-hydroxy-benzoyl)-6-oxo-hexa hydro-pyrrolo[3,2-b]pyrrole-1-yl]-1-(4-hydroxy-benzyl)-2-oxo-ethyl]-benzamide]: the Ki on Wild-type cruzipain and at human cathepsin B was less than 5 µM each time.
With `O=C(N[C@@H](Cc1ccc(O)cc1)C(=O)N1CC[C@@H]2[C@H]1C(=O)CN2C(=O)C1CCCCC1)c1cccc(Br)c1` [Example 325, (3aR,6aS)-3-Bromo-N-[(1S)-2-(4-cyclohexanecarbonyl-6-oxo-hexahydro-pyrrolo[3,2-b]pyrrole-1-yl)-1-(4-hydroxy-benzyl)-2-oxo-ethyl]-benzamide], the inhibitory constant (Ki) at Wild-type cruzipain and on human cathepsin B was less than 5 µM in each case.
In the case of `Cc1cccc(C(=O)N2CC(=O)[C@@H]3[C@H]2CCN3C(=O)[C@H](Cc2ccc(O)cc2)NC(=O)c2cccc(Br)c2)c1` [Example 327, (3aR,6aS)-3-Bromo-N-{(1S)-1-(4-hydroxy-benzyl)-2-[4-(3-methyl-benzoyl)-6-oxo-hexahydro-pyrrolo[3,2-b]pyrrol-1-yl]-2-oxo-ethyl}-benzamide], the Ki at Wild-type cruzipain and on human cathepsin B was less than 5 µM in each case.
